Patent US9920032B2, “Heterocyclic compounds useful as pim kinase inhibitors” (Incyte Corporation, priority 2015, dated 2018)
pIC50: −log10 of the molar value.

Columns and labels:
Format in all cases: biochemical
Pim-1 = Pim-1 (Homo sapiens (Human), UniProt P11309); test: Pim-1 kinase assay; details: 1 mM ATP; read-out: PIM1 IC50
Method in brief: (§1)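 Enzyme at 2.5 pM (Pim-1) or 1.25 pM (Pim-3) reacted 1 h at 25° C with 1 mM ATP and 0.05 μM biotinylated BAD peptide, pH 7.5. Phospho-Ser112 BAD detected by antibody/Protein-A acceptor and streptavidin donor bead proximity signal after EDTA quench and 1 h dark incubation.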

Pim-2 = Pim-2 (Homo sapiens (Human), UniProt Q9P1W9); test: Pim-2 kinase assay; details: 1 mM ATP; read-out: PIM2 IC50
Chain of Pim-2 (Q9P1W9 whole entry): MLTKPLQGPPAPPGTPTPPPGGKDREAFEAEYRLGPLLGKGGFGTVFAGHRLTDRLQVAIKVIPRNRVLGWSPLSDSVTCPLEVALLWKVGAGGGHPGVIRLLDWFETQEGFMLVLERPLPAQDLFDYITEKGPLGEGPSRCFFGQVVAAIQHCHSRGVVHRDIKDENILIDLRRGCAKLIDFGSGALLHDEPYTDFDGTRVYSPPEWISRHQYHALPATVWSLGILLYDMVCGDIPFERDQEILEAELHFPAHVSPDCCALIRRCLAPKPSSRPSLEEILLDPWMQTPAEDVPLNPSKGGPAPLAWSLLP
Method in brief: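 TR-FRET assay with 1 nM enzyme, 0.05 μM fluorescein-CREBtide and 1 mM ATP in Tris pH 7.5 buffer with MgCl2, DTT, BSA and Tween-20, run 2 h at 25° C. Stopped with EDTA and Tb-labelled anti-CREB pSer133 antibody, then read after 30 min at room temperature.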

Pim-3 = Pim-3 (Homo sapiens (Human), UniProt Q86V86); test: Pim-3 kinase assay; details: 1 mM ATP; read-out: PIM3 IC50
Method in brief: as §1

Chain of Pim-1 (P11309 whole entry): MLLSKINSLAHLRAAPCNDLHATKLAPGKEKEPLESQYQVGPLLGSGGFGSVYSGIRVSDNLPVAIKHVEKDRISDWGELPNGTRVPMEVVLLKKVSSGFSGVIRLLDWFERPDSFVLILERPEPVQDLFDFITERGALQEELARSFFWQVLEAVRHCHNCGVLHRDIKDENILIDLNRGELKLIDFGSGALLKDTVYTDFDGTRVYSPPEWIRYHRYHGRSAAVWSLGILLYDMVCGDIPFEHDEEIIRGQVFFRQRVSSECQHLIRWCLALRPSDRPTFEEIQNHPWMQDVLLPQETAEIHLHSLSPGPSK

Structure (SMILES) | pIC50 (Pim-1) | pIC50 (Pim-2) | pIC50 (Pim-3)
C[C@@H]1C[C@H](N)C[C@H](c2ccncc2NC(=O)c2cccc3cc(N4CCC[C@@H]4C)cnc23)C1 [Example 69, N-(4-((1R,3S,5S)-3-Amino-5-methylcyclohexyl)pyridin-3-yl)-3-((S)-2-methylpyrrolidin-1-yl)quinoline-8-carboxamide] | ≥ 8.00 | ≥ 7.00 | ≥ 8.00
CC1CCCCN1c1cnc2c(C(=O)Nc3cnccc3[C@@H]3C[C@H](C)C[C@H](N)C3)cccc2c1 (stereo partly drawn) [Example 70, N-(4-((1R,3S,5S)-3-Amino-5-methylcyclohexyl)pyridin-3-yl)-3-(2-methylpiperidin-1-yl)quinoline-8-carboxamide] | ≥ 8.00 | 6.00 to 7.00 | ≥ 8.00
C[C@@H]1C[C@H](N)C[C@H](c2ccncc2NC(=O)c2cccc3cc(N4CCCCC4C(F)F)cnc23)C1 (stereo partly drawn) [Example 71, N-(4-((1R,3S,5S)-3-Amino-5-methylcyclohexyl)pyridin-3-yl)-3-(2-(difluoromethyl)piperidin-1-yl)quinoline-8-carboxamide] | ≥ 8.00 | 6.00 to 7.00 | ≥ 8.00
C[C@@H]1C[C@H](N)C[C@H](c2ccncc2NC(=O)c2cccc3cc(N(C)CC(F)F)cnc23)C1 [Example 72, N-(4-((1R,3S,5S)-3-Amino-5-methylcyclohexyl)pyridin-3-yl)-3-((2,2-difluoroethyl)(methyl)amino)quinoline-8-carboxamide] | ≥ 8.00 | 6.00 to 7.00 | ≥ 8.00
C[C@@H]1C[C@H](N)C[C@H](c2ccncc2NC(=O)c2ccc(F)c3cc(N4CCSCC4)cnc23)C1 [Example 73, N-(4-((1R,3S,5S)-3-Amino-5-methylcyclohexyl)pyridin-3-yl)-5-fluoro-3-thiomorpholinoquinoline-8-carboxamide] | ≥ 8.00 | ≥ 7.00 | ≥ 8.00
C[C@@H]1C[C@H](N)C[C@H](c2ccncc2NC(=O)c2ccc(F)c3cc(N4CCN(S(=O)(=O)N(C)C)CC4)cnc23)C1 [Example 74, N-(4-((1R,3S,5S)-3-Amino-5-methylcyclohexyl)pyridin-3-yl)-3-(4-(N,N-dimethylsulfamoyl)piperazin-1-yl)-5-fluoroquinoline-8-carboxamide] | ≥ 8.00 | 6.00 to 7.00 | ≥ 8.00
C[C@@H]1C[C@H](N)C[C@H](c2ccncc2NC(=O)c2ccc(F)c3cc(N4CCN(C)C(=O)C4)cnc23)C1 [Example 75, N-(4-((1R,3S,5S)-3-Amino-5-methylcyclohexyl)pyridin-3-yl)-5-fluoro-3-(4-methyl-3-oxopiperazin-1-yl)quinoline-8-carboxamide] | ≥ 8.00 | ≥ 7.00 | ≥ 8.00
C[C@@H]1C[C@H](N)C[C@H](c2ccncc2NC(=O)c2ccc(F)c3cc(N4CCCCCC4)cnc23)C1 [Example 76, N-(4-((1R,3S,5S)-3-Amino-5-methylcyclohexyl)pyridin-3-yl)-3-(azepan-1-yl)-5-fluoroquinoline-8-carboxamide] | ≥ 8.00 | ≥ 7.00 | ≥ 8.00
C[C@@H]1C[C@H](N)C[C@H](c2ccncc2NC(=O)c2ccc(F)c3cc(N4C5CCC4COC5)cnc23)C1 [Example 77, N-(4-((1R,3S,5S)-3-Amino-5-methylcyclohexyl)pyridin-3-yl)-3-(3-oxa-8-azabicyclo[3.2.1]octan-8-yl)-5-fluoroquinoline-8-carboxamide] | ≥ 8.00 | ≥ 7.00 | ≥ 8.00
C[C@@H]1C[C@H](N)C[C@H](c2ccncc2NC(=O)c2ccc(F)c3cc(N4CCCC4=O)cnc23)C1 [Example 78, N-(4-((1R,3S,5S)-3-Amino-5-methylcyclohexyl)pyridin-3-yl)-5-fluoro-3-(2-oxopyrrolidin-1-yl)quinoline-8-carboxamide] | ≥ 8.00 | 6.00 to 7.00 | ≥ 8.00
C[C@@H]1C[C@H](N)C[C@H](c2ccncc2NC(=O)c2ccc(F)c3cc(N4CCc5ccccc54)cnc23)C1 [Example 79, N-(4-((1R,3S,5S)-3-Amino-5-methylcyclohexyl)pyridin-3-yl)-5-fluoro-3-(indolin-1-yl)quinoline-8-carboxamide] | ≥ 8.00 | 6.00 to 7.00 | ≥ 8.00
C[C@@H]1C[C@H](N)C[C@H](c2ccncc2NC(=O)c2ccc(F)c3cc(N4C[C@H]5C[C@@H]4CO5)cnc23)C1 [Example 80, N-(4-((1R,3S,5S)-3-Amino-5-methylcyclohexyl)pyridin-3-yl)-3-((1R,4R)-2-oxa-5-azabicyclo[2.2.1]heptan-5-yl)-5-fluoroquinoline-8-carboxamide] | ≥ 8.00 | ≥ 7.00 | ≥ 8.00
C[C@@H]1C[C@H](N)C[C@H](c2ccncc2NC(=O)c2ccc(F)c3cc(N4CC5CC(C4)O5)cnc23)C1 [Example 81, N-(4-((1R,3S,5S)-3-Amino-5-methylcyclohexyl)pyridin-3-yl)-3-(6-oxa-3-azabicyclo[3.1.1]heptan-3-yl)-5-fluoroquinoline-8-carboxamide] | ≥ 8.00 | ≥ 7.00 | ≥ 8.00
C[C@@H]1C[C@H](N)C[C@H](c2ccncc2NC(=O)c2ccc(F)c3cc(N4CCN(C(=O)N(C)C)CC4)cnc23)C1 [Example 82, N-(4-((1R,3S,5S)-3-Amino-5-methylcyclohexyl)pyridin-3-yl)-3-(4-(dimethylcarbamoyl)piperazin-1-yl)-5-fluoroquinoline-8-carboxamide] | ≥ 8.00 | 6.00 to 7.00 | ≥ 8.00
C[C@@H]1C[C@H](N)C[C@H](c2ccncc2NC(=O)c2ccc(F)c3cc(N(C)c4ccccc4)cnc23)C1 [Example 83, N-(4-((1R,3S,5S)-3-Amino-5-methylcyclohexyl)pyridin-3-yl)-5-fluoro-3-(methyl(phenyl)amino)quinoline-8-carboxamide] | ≥ 8.00 | ≥ 7.00 | ≥ 8.00
C[C@@H]1C[C@H](N)C[C@H](c2ccncc2NC(=O)c2ccc(F)c3cc(N4CCN5C(=O)CCC5C4)cnc23)C1 (stereo partly drawn) [Example 84, N-(4-((1R,3S,5S)-3-Amino-5-methylcyclohexyl)pyridin-3-yl)-5-fluoro-3-(6-oxohexahydropyrrolo[1,2-a]pyrazin-2(1H)-yl)quinoline-8-carboxamide] | ≥ 8.00 | 6.00 to 7.00 | ≥ 8.00
C[C@@H]1C[C@H](N)C[C@H](c2ccncc2NC(=O)c2ccc(F)c3cc(N4CCN(S(C)(=O)=O)C[C@@H]4C)cnc23)C1 [Example 85, N-(4-((1R,3S,5S)-3-Amino-5-methylcyclohexyl)pyridin-3-yl)-5-fluoro-3-((S)-2-methyl-4-(methylsulfonyl)piperazin-1-yl)quinoline-8-carboxamide] | ≥ 8.00 | 6.00 to 7.00 | ≥ 8.00
C[C@@H]1C[C@H](N)C[C@H](c2ccncc2NC(=O)c2ccc(F)c3cc(N4CCN(S(C)(=O)=O)C[C@H]4C)cnc23)C1 [Example 86, N-(4-((1R,3S,5S)-3-Amino-5-methylcyclohexyl)pyridin-3-yl)-5-fluoro-3-((R)-2-methyl-4-(methylsulfonyl)piperazin-1-yl)quinoline-8-carboxamide] | ≥ 8.00 | ≥ 7.00 | ≥ 8.00
C[C@@H]1C[C@H](N)C[C@H](c2ccncc2NC(=O)c2ccc(F)c3cc(N4C[C@H]5C[C@@H]4CN5S(C)(=O)=O)cnc23)C1 [Example 87, N-(4-((1R,3S,5S)-3-Amino-5-methylcyclohexyl)pyridin-3-yl)-5-fluoro-3-((1R,4R)-5-(methylsulfonyl)-2,5-diazabicyclo[2.2.1]heptan-2-yl)quinoline-8-carboxamide] | ≥ 8.00 | 6.00 to 7.00 | ≥ 8.00
COC(=O)N1CCN(c2cnc3c(C(=O)Nc4cnccc4[C@@H]4C[C@H](C)C[C@H](N)C4)ccc(F)c3c2)[C@@H](C)C1 [Example 88, (S)-Methyl 4-(8-(4-((1R,3S,5S)-3-amino-5-methylcyclohexyl)pyridin-3-ylcarbamoyl)-5-fluoroquinolin-3-yl)-3-methylpiperazine-1-carboxylate] | ≥ 8.00 | ≥ 7.00 | ≥ 8.00
COC(=O)N1CCN(c2cnc3c(C(=O)Nc4cnccc4[C@@H]4C[C@H](C)C[C@H](N)C4)ccc(F)c3c2)[C@H](C)C1 [Example 89, (R)-Methyl 4-(8-(4-((1R,3S,5S)-3-amino-5-methylcyclohexyl)pyridin-3-ylcarbamoyl)-5-fluoroquinolin-3-yl)-3-methylpiperazine-1-carboxylate] | ≥ 8.00 | ≥ 7.00 | ≥ 8.00
COC(=O)N1C[C@H]2C[C@@H]1CN2c1cnc2c(C(=O)Nc3cnccc3[C@@H]3C[C@H](C)C[C@H](N)C3)ccc(F)c2c1 [Example 90, (1R,4R)-Methyl 5-(8-(4-((1R,3S,5S)-3-amino-5-methylcyclohexyl)pyridin-3-ylcarbamoyl)-5-fluoroquinolin-3-yl)-2,5-diazabicyclo[2.2.1]heptane-2-carboxylate] | ≥ 8.00 | ≥ 7.00 | ≥ 8.00
C[C@@H]1C[C@H](N)C[C@H](c2ccncc2NC(=O)c2ccc(F)c3cc(-c4c(F)cccc4F)nnc23)C1 [Example 91, N-{4-[(1R,3S,5S)-3-amino-5-methylcyclohexyl]pyridin-3-yl}-3-(2,6-difluorophenyl)-5-fluorocinnoline-8-carboxamide] | ≥ 8.00 | 5.00 to 6.00 | 7.30 to 8.00
CCc1cc2c(F)ccc(C(=O)Nc3cnccc3[C@@H]3C[C@H](C)C[C@H](N)C3)c2nn1 [Example 92, N-{4-[(1R,3S,5S)-3-Amino-5-methylcyclohexyl]pyridin-3-yl}-3-ethyl-5-fluorocinnoline-8-carboxamide] | ≥ 8.00 | 5.00 to 6.00 | 7.30 to 8.00
